*1 amine or outer side, *2 acyl side, *3 side chain or, on linkers, in order; H or OH if unused. Where a SMILES comes first, the peptide text is derived from it. Bridges are numbered along the chain shown (N, C = ends). [ ]: non-standard residue; d: D form. The star is where a group is joined. hPhe(3-Cl-4-CF3) = N[C@@H](CCc1ccc(C(F)(F)F)c(Cl)c1)C(=O)O; NPrPhe(4-CF3) = CCCN[C@@H](Cc1ccc(C(F)(F)F)cc1)C(=O)O; X26 = COCCCN([C@@H](Cc1ccc(C)cc1)C(=O)[*:2])[*:1]; NMeAbu(4,4,4-F3) = CN[C@@H](CC(F)(F)F)C(=O)O; NMeGly(cPent) = CN[C@H](C(=O)O)C1CCCC1; Pro(4,4-F2) = O=C(O)[C@@H]1CC(F)(F)CN1; NMeD = CN[C@@H](CC(=O)O)C(=O)O; NMeL = CN[C@@H](CC(C)C)C(=O)O; Morpholide = C1CN(*)CCO1; NMeA = CN[C@@H](C)C(=O)O; Ac5c = NC1(C(=O)O)CCCC1; Aze = O=C(O)[C@@H]1CCN1; Sar = CNCC(=O)O
Assays:
[1] = biological target: GDP-bound NRAS wild-type protein (Homo sapiens, UniProt P01111); assay: Binding to NRAS by surface plasmon resonance (SPR), Single Cycle Kinetics; conditions: for NRAS/KRAS (ratio of KD value for NRAS to KD value for KRAS) / NRAS/KRAS (ratio of KD value with respect to NRAS to KD value with respect to KRAS): GDP-bound NRAS wild-type vs GDP-bound KRAS wild-type
[2] = biological target: GDP-bound HRAS wild-type protein (Homo sapiens, UniProt P01112); assay: Binding to HRAS by surface plasmon resonance (SPR), Single Cycle Kinetics; conditions: for HRAS/KRAS (ratio of KD value for HRAS to KD value for KRAS) / HRAS/KRAS (ratio of KD value with respect to HRAS to KD value with respect to KRAS): GDP-bound HRAS wild-type vs GDP-bound KRAS wild-type
Sequence of GDP-bound HRAS wild-type protein (P01112 whole entry): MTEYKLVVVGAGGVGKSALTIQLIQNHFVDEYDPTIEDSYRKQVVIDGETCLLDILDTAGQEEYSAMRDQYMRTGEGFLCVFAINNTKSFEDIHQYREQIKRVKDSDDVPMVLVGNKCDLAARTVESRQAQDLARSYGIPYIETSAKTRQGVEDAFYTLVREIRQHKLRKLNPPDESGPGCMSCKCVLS

Sequence of GDP-bound NRAS wild-type protein (P01111 whole entry): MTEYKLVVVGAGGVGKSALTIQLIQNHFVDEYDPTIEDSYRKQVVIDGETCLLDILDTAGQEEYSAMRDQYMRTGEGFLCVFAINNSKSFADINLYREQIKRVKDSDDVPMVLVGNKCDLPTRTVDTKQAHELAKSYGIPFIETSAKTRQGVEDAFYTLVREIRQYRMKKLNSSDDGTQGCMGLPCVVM

| SMILES | NRAS/KRAS (ratio of KD value for NRAS to KD value for KRAS) ([1]; KD ratio, SPR) | HRAS/KRAS (ratio of KD value for HRAS to KD value for KRAS) ([2]; KD ratio, SPR) | NRAS/KRAS (ratio of KD value with respect to GDP-bound NRAS wild-type protein to KD value with respect to KRAS) ([1]; class symbols) | HRAS/KRAS (ratio of KD value with respect to GDP-bound HRAS wild-type protein to KD value with respect to KRAS) ([2]; class symbols) | other results |
| --- | --- | --- | --- | --- | --- |
| CC[C@H](C)[C@@H]1NC(=O)[C@H](C2CC2)N(C)C(=O)C[C@@H](C(=O)N(C)C)N(C)C(=O)[C@H](C2CCCC2)N(C)C(=O)C2(CCC2)N(C)C(=O)[C@@H]2CCCN2C(=O)[C@H](CCc2cc(F)c(C(F)(F)F)c(F)c2)NC(=O)CN(C)C(=O)[C@H](Cc2ccc(C)cc2)N2CC/C=C\C[C@@H](C2=O)N(C)C(=O)CN(C)C1=O [PP1784] | A (a compound having 10 or more and less than 20 is denoted as A) | B (a compound having 3 or more and less than 10 is denoted as B) | – | – | – |
| CC[C@H](C)[C@@H]1NC(=O)[C@H](CC(C)C)N(C)C(=O)C[C@@H](C(=O)N2CCOCC2)N(C)C(=O)[C@H](C2CCCC2)N(C)C(=O)C(C)(C)NC(=O)[C@@H]2CCCN2C(=O)[C@H](CCc2cc(F)c(C(F)(F)F)c(F)c2)NC(=O)CN(C)C(=O)[C@H](Cc2ccc(C(F)(F)F)cc2)N2CCCCC[C@@H](C2=O)N(C)C(=O)CN(C)C1=O [PP0503] | – | – | – | – | NRAS/KRAS (ratio of KD value with respect to GDP-bound NRAS wild-type protein to KD value with respect to KRAS) ([1]; SPR): A (a compound having 10 or more and less than 20 is denoted as A); HRAS/KRAS (ratio of KD value with respect to GDP-bound HRAS wild-type protein to KD value with respect to KRAS) ([2]; SPR): B (a compound having 3 or more and less than 10 is denoted as B) |
| CCO[C@@H]1C[C@H]2C(=O)NC(C)(C)C(=O)N(C)[C@@H](C3CCCC3)C(=O)N(C)[C@H](C(=O)N(C)CC)CC(=O)N(C)[C@@H](CC(C)C)C(=O)N[C@@H]([C@@H](C)CC)C(=O)N(C)CC(=O)N(C)[C@H]3C/C=C\CCN(C3=O)[C@@H](Cc3ccc(C(F)(F)F)cc3)C(=O)N(C)CC(=O)N[C@@H](CCc3cc(F)c(C(F)(F)F)c(F)c3)C(=O)N2C1 [PP1937] | A (a compound having 10 or more and less than 20 is denoted as A) | A (a compound having 10 or more and less than 20 is denoted as A) | – | – | – |
| CCC[C@H]1C(=O)N[C@@H]([C@@H](C)CC)C(=O)N(C)CC(=O)N(C)[C@H]2C/C=C\CCN(C2=O)[C@@H](Cc2ccc(C)cc2)C(=O)N(C)CC(=O)N[C@@H](CCc2ccc3c(C)c(C)n(C)c3c2)C(=O)N2C[C@H](OCC)C[C@H]2C(=O)NC2(CC(C)(C)C2)C(=O)N(C)[C@@H](C2CCCC2)C(=O)N(C)[C@H](C(=O)N(C)C)CC(=O)N1C [PP2895] | – | – | A (a compound having 10 or more and less than 20 is denoted as A) | A (a compound having 10 or more and less than 20 is denoted as A) | – |
| CCC(CC)[C@H]1C(=O)N(C)[C@H](C(=O)N(C)C)CC(=O)N(C)[C@@H](COC)C(=O)N[C@@H]([C@@H](C)CC)C(=O)N(C)CC(=O)N(C)[C@H]2C/C=C\CCN(C2=O)[C@@H](Cc2ccc(C(F)F)cc2)C(=O)N(C)CC(=O)N[C@@H](CCc2ccc(Cl)c(Cl)c2)C(=O)N2C[C@H](OC3CCCC3)C[C@H]2C(=O)NC2(CC(C)(C)C2)C(=O)N1C [PP2649] | – | – | AA (a compound having 20 or more is denoted as AA) | A (a compound having 10 or more and less than 20 is denoted as A) | – |
| CCO[C@@H]1C[C@H]2C(=O)NC3(CCC3)C(=O)N(C)[C@@H](C3CCCC3)C(=O)N(C)[C@H](C(=O)N(C)C)CC(=O)N(C)[C@@H](CC)C(=O)N[C@@H]([C@@H](C)CC)C(=O)N(C)CC(=O)N(C)[C@H]3CCCCN(C3=O)[C@@H](Cc3ccc(C(F)(F)F)cc3)C(=O)N(C)CC(=O)N[C@@H](CCc3ccc(C(F)(F)F)cc3F)C(=O)N2C1 [PP0885] | – | – | – | – | NRAS/KRAS (ratio of KD value with respect to NRAS to KD value with respect to KRAS) ([1]; KD ratio, SPR): C (A compound having a KD ratio of 0.1 or more and less than 3 is denoted as C); HRAS/KRAS (ratio of KD value with respect to HRAS to KD value with respect to KRAS) ([2]; KD ratio, SPR): B (a compound having 3 or more and less than 10 is denoted as B) |
| CC[C@H](C)[C@@H]1NC(=O)[C@H](COC)N(C)C(=O)C[C@@H](C(=O)N2CCCCC2)N(C)C(=O)[C@H](C2CCCC2)N(C)C(=O)C2(CC(C)(C)C2)NC(=O)[C@@H]2C[C@@H](OC(C)C)CN2C(=O)[C@H](CCc2cc(F)c(C(F)(F)F)c(F)c2)NC(=O)CN(C)C(=O)[C@H](Cc2ccc(C(F)(F)F)cc2)N2CC/C=C\C[C@@H](C2=O)N(C)C(=O)CN(C2CC2)C1=O [PP2667] | – | – | A (a compound having 10 or more and less than 20 is denoted as A) | A (a compound having 10 or more and less than 20 is denoted as A) | – |
| CCO[C@@H]1C[C@H]2C(=O)NC3(CC(C)(C)C3)C(=O)N(C)[C@@H](C3CCCC3)C(=O)N(C)[C@H](C(=O)N(C)C)CC(=O)N(C)[C@@H](CC(C)C)C(=O)N[C@@H]([C@@H](C)CC)C(=O)N(C)CC(=O)N(C)[C@H]3C/C=C\CCN(C3=O)[C@@H](Cc3ccc(C(F)(F)F)cc3)C(=O)N(C)CC(=O)N[C@@H](CCc3ccc(C(F)(F)F)c(Cl)c3)C(=O)N2C1 [PP1751] | A (a compound having 10 or more and less than 20 is denoted as A) | A (a compound having 10 or more and less than 20 is denoted as A) | – | – | – |
| CCCN1C(=O)CN(C)C(=O)CN(C)C(=O)[C@H]([C@@H](C)CC)NC(=O)[C@H](CC(F)(F)F)N(C)C(=O)C[C@@H](C(=O)N2CCOCC2)N(C)C(=O)[C@H](C2CCCC2)N(C)C(=O)C2(CCCC2)NC(=O)[C@@H]2CC(F)(F)CN2C(=O)[C@H](CCc2ccc(C(F)(F)F)c(Cl)c2)NC(=O)CN(C)C(=O)[C@@H]1Cc1ccc(C(F)(F)F)cc1 [PP0199] ([NMeAbu(4,4,4-F3)]I[Sar][Sar][NPrPhe(4-CF3)][Sar][hPhe(3-Cl-4-CF3)][Pro(4,4-F2)][Ac5c][NMeGly(cPent)][NMeD]-Morpholide; lactam N-11) | – | – | – | – | NRAS/KRAS (ratio of KD for GDP-bound NRAS wild-type to KD for KRAS) ([1]; SPR): B (a compound having 3 or more and less than 10 is denoted as B); HRAS/KRAS (ratio of KD for GDP-bound HRAS wild-type to KD for KRAS) ([2]; SPR): C (A compound having a KD ratio of 0.1 or more and less than 3 is denoted as C) |
| CCO[C@@H]1C[C@H]2C(=O)NC3(CC(C)(C)C3)C(=O)N(C)[C@@H](C(CC)CC)C(=O)N(C)[C@H](C(=O)N3CCCCC3)CC(=O)N(C)[C@H]3CCC/C=C/c4ccc(cc4)C[C@@H](C(=O)N(C)CC(=O)N[C@@H](CCc4cc(F)c(C(F)(F)F)c(F)c4)C(=O)N2C1)N1CC/C=C\C[C@@H](C1=O)N(C)C(=O)CN(C)C(=O)[C@H]([C@@H](C)CC)NC3=O [PP2952] | – | – | AA (a compound having 20 or more is denoted as AA) | A (a compound having 10 or more and less than 20 is denoted as A) | – |
| CC[C@H](C)[C@@H]1NC(=O)[C@H](C2CCC2)N(C)C(=O)C[C@@H](C(=O)N(C)CC)N(C)C(=O)[C@H](C2CCCC2)N(C)C(=O)C2(CCC2)NC(=O)[C@@H]2C[C@H](C)CN2C(=O)[C@H](CCc2ccc(C(F)(F)F)c(OC)c2)NC(=O)CN(C)C(=O)[C@H](Cc2ccc(C(F)(F)F)cc2)N2CC/C=C\C[C@@H](C2=O)N(C)C(=O)CN(C)C1=O [PP2071] | – | – | – | – | NRAS/KRAS (ratio of KD value with respect to NRAS to KD value with respect to KRAS) ([1]; SPR): A (a compound having 10 or more and less than 20 is denoted as A); HRAS/KRAS (ratio of KD value with respect to HRAS to KD value with respect to KRAS) ([2]; SPR): A (a compound having 10 or more and less than 20 is denoted as A) |
| CCO[C@@H]1C[C@H]2C(=O)NC3(CC(C)(C)C3)C(=O)N(C)[C@@H](C3CCCCC3)C(=O)N(C)[C@H](C(=O)N(C)C)CC(=O)N(C)[C@@H](CC)C(=O)N[C@@H]([C@@H](C)CC)C(=O)N(C)CC(=O)N(C)[C@H]3C/C=C\CCN(C3=O)[C@@H](Cc3ccc(C(F)(F)F)cc3)C(=O)N(C)CC(=O)N[C@@H](CCc3cc(F)c(C(F)(F)F)c(F)c3)C(=O)N2C1 [PP1942] | AA (a compound having 20 or more is denoted as AA) | A (a compound having 10 or more and less than 20 is denoted as A) | – | – | – |
| CC[C@H](C)[C@@H]1NC(=O)[C@H](CC(C)C)N(C)C(=O)C[C@@H](C(=O)N2CCOCC2)N(C)C(=O)[C@H](C2CCCC2)N(C)C(=O)C2(CCCC2)NC(=O)[C@@H]2CCCN2C(=O)[C@H](CCc2ccc(C(F)(F)F)c(Cl)c2)NC(=O)CN(C)C(=O)[C@H](Cc2ccc(C)cc2)N(CCCOC)C(=O)[C@@H]2CCN2C(=O)[C@H](C)N(C)C1=O [PP0093] ([NMeL]I[NMeA][Aze][X26][Sar][hPhe(3-Cl-4-CF3)]P[Ac5c][NMeGly(cPent)][NMeD]-Morpholide; lactam N-11) | – | – | – | – | NRAS/KRAS (ratio of KD for GDP-bound NRAS wild-type to KD for KRAS) ([1]; SPR): C (A compound having a KD ratio of 0.1 or more and less than 3 is denoted as C); HRAS/KRAS (ratio of KD for GDP-bound HRAS wild-type to KD for KRAS) ([2]; SPR): B (a compound having 3 or more and less than 10 is denoted as B) |
| CCO[C@@H]1C[C@H]2C(=O)N(C)C3(CC(C)(C)C3)C(=O)N(C)[C@@H](C(CC)CC)C(=O)N(C)[C@H](C(=O)N(C)C)CC(=O)N(C)[C@@H](COC)C(=O)N[C@@H]([C@@H](C)CC)C(=O)N(C)CC(=O)N(C)[C@H]3C/C=C\CCN(C3=O)[C@@H](Cc3ccc(C)cc3)C(=O)N(C)CC(=O)N[C@@H](CCc3ccc(Cl)c(Cl)c3)C(=O)N2C1 [PP2810] | – | – | AA (a compound having 20 or more is denoted as AA) | A (a compound having 10 or more and less than 20 is denoted as A) | – |
| CCO[C@@H]1C[C@H]2C(=O)N(C)C3(CCCC3)C(=O)N(C)[C@@H](C3CCCC3)C(=O)N(C)[C@H](C(=O)N(C)C)CC(=O)N(C)[C@@H](C3CC3)C(=O)N[C@@H]([C@@H](C)CC)C(=O)N(C)CC(=O)N(C)[C@H]3C/C=C\CCN(C3=O)[C@@H](Cc3ccc(C)cc3)C(=O)N(C)CC(=O)N[C@@H](CCc3cc(F)c(C(F)(F)F)c(F)c3)C(=O)N2C1 [PP1808] | A (a compound having 10 or more and less than 20 is denoted as A) | B (a compound having 3 or more and less than 10 is denoted as B) | – | – | – |
